The values below are quoted from earlier work in US4703106A, “Novel polypeptide and process for producing the same” (Mitsubishi Petrochemical Co., Ltd., priority 1984, dated 1987).

Positions of bridges follow the written chain, without caps; N, C: chain ends. No end group written: not given here.

The data set relates to Ca^2+ concentration in blood. The following applies: published as Japanese Provisional Patent Publication No. 123500/1985.

Take “chicken CT: calcitonin extracted and purified from the ultimobranchial glands of chickens, formula (I) (CASLSTCVLGKLSQELHKLQTYPRTDVGAGTP-NH2; disulfide 1-7; ends not checked; UniProt P07660 82-113, looked up)”: the “biological activity relative to CT's of cyclostomata and fish” value is “equal to or higher than CT's of cyclostomata and fish”.
